The target in this assay is T1, recombinant human baculovirus-expressed GST-tagged FASN (Homo sapiens, UniProt P49327).
T1 construct: GST
T1 sequence (P49327 whole entry): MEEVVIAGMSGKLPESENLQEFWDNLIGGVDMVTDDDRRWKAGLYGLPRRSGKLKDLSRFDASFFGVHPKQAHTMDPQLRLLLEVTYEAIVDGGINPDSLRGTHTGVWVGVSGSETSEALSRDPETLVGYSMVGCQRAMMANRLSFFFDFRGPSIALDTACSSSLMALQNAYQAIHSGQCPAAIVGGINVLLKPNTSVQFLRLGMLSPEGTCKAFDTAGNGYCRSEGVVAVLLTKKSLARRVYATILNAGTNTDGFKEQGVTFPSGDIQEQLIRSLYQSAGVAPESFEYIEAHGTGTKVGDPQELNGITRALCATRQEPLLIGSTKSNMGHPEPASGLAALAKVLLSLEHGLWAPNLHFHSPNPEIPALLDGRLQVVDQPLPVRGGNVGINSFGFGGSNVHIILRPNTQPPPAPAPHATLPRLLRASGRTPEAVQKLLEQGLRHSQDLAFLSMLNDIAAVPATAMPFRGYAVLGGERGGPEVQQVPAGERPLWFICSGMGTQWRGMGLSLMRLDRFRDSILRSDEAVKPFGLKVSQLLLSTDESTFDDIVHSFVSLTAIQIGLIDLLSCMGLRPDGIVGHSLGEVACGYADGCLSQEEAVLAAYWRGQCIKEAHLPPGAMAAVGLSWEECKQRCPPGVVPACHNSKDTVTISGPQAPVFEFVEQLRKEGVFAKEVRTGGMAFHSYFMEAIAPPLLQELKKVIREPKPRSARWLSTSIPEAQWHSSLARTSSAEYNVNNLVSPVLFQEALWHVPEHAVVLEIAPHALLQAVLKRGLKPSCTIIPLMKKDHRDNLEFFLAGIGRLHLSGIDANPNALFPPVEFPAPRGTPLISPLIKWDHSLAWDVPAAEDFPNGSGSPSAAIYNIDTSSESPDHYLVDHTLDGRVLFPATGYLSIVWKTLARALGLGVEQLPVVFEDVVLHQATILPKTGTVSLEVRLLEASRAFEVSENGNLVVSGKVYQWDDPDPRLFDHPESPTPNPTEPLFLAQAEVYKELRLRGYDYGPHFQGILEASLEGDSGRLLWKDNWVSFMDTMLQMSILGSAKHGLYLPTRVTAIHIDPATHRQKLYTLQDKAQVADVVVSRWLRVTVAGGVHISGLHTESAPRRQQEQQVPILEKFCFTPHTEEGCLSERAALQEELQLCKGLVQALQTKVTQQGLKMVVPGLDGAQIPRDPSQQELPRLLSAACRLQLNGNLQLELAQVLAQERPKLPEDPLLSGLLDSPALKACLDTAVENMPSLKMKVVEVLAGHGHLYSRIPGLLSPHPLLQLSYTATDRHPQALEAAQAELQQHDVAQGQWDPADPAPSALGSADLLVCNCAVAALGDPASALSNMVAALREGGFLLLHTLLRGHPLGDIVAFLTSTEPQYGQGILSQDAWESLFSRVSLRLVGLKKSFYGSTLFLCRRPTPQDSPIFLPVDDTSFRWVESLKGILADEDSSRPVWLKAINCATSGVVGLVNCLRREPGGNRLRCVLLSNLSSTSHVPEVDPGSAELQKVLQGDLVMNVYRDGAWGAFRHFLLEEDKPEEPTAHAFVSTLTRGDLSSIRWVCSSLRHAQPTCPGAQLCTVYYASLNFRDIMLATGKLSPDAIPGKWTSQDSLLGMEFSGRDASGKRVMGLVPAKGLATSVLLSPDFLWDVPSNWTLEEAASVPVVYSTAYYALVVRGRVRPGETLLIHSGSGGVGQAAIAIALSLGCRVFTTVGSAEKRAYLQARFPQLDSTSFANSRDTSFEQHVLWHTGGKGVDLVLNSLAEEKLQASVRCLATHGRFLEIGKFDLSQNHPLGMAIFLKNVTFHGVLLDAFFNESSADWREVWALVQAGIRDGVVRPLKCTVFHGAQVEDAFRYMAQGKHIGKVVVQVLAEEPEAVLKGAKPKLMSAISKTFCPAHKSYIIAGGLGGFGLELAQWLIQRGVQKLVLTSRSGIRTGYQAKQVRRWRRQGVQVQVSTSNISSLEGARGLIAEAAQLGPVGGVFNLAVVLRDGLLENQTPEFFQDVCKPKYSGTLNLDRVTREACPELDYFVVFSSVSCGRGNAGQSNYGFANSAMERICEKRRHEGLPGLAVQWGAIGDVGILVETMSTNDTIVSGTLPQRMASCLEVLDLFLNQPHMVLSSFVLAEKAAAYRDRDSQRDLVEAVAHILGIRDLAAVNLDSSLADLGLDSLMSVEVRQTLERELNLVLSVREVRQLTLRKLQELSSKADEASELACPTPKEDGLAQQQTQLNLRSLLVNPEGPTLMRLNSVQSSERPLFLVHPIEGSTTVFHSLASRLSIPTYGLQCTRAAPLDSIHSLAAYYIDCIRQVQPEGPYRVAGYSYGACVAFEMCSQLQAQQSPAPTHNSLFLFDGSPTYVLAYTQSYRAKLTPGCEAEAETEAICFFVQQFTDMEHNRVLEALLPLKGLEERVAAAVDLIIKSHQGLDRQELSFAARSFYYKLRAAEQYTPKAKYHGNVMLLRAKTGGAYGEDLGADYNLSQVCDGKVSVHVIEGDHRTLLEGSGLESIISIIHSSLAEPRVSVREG
In words: FASN enzyme activity assay, fluorescence-based detection of CoA with CPM. The note with it: 5 nM FASN, 150 μM NADPH, 10 μM acetyl-CoA, 25 μM malonyl-CoA, 90 minutes incubation; read-out: IC50 data for Compounds of Formulae I-V/V(a): Activity. The format is biochemical. From the text: FASN Enzyme activity may be determined by detecting coenzyme A (CoA), a product of FASN-catalyzed synthesis of palmitate from acetyl-CoA and malonyl-CoA with NADPH as a cofactor. The assay is fluorescence-based and measures the interaction of free CoA with 7-diethylamino-3-(4′-malemimidylphenyl)-4-methylcoumarin (CPM; Life Technologies, CA) as described in Chung et al (2008). The coumarin derivative CPM contains a thiol-reactive maleimide that becomes fluorescent upon interaction with the sulfhydryl group of CoA.
For the example compounds described herein, the reaction was performed in 384-well low volume non-binding plates (Corning, N.Y.) using recombinant human baculovirus-expressed GST-tagged FASN. The 20-μL assay mixture contained 50 mM HEPES (pH 7.5), 5 nM FASN, 150 μM NADPH (Sigma, St. Louis, Mo.), 10 μM acetyl-CoA (Sigma), 25 μM malonyl-CoA (Sigma) and test compound [diluted in dimethyl sulfoxide (DMSO); 0.5% DMSO final in assay after 100 nL addition]. See, Chung et al.; “A fluorescence-based thiol quantification assay for ultra-high-throughput screening for inhibitors of coenzyme A production,” Assay Drug Dev Tech 2008; 6:361-374.
The reaction was initiated by adding malonyl-CoA, followed by incubation for 90 minutes at […]. A stock solution of the CPM reagent was prepared in DMSO at […] and stored at […]. To detect CoA produced in the FASN reaction, the CPM stock was diluted to […] in 70% ethanol and added at 4 μL/well to the assay plate. The reaction mixture was then incubated for 30 minutes. Fluorescence was measured using the EnVision™ 2102 multi-label plate reader (PerkinElmer, Waltham, Mass.) utilizing a general dual mirror, a 390 nm excitation filter and a 530 nm emission filter. Data analysis was performed using ActivityBase (IDBS, Guilford, UK). IC50 values were calculated by plotting the percent inhibition versus log 10 of the concentration of the compound, and fitting to the nonlinear regression sigmoidal dose-response (variable slope) equation in XLFit (IDBS).
For the compound `CCC(=O)N1CCC(Oc2ccc(-c3cnc4ccccc4c3Cl)cc2)CC1` [Example 47, 1-{4-[4-(4-Chloroquinolin-3-yl)-phenoxy]-piperidin-1-yl}-propan-1-one], the IC50 lay in the range of 1 to 99 nM.
Next, `O=C(C1CC1)N1CCC(Oc2ccc(-c3cnc4ccccc4c3Cl)cc2)CC1` [Example 48, {4-[4-(4-Chloroquinolin-3-yl)-phenoxy]-piperidin-1-yl}-cyclopropyl-methanone]: 1 to 99 nM; `O=C(C1CCC1)N1CCC(Oc2ccc(-c3cnc4ccccc4c3Cl)cc2)CC1` [Example 49, {4-[4-(4-Chloroquinolin-3-yl)-phenoxy]-piperidin-1-yl}-cyclobutyl-methanone]: 1 to 99 nM.
Next, `CCC(=O)N1CCC(Oc2ccc(-c3cnc4ccccc4c3OC)cc2)CC1` [Example 50, 1-{4-[4-(4-Methoxyquinolin-3-yl)-phenoxy]-piperidin-1-yl}-propan-1-one]: 100 to 999 nM; `CCC(=O)N1CCC(Oc2ccc(-c3cnc4ccoc4c3)cc2)CC1` [Example 51, 1-[4-(4-Furo[3,2-b]pyridin-6-yl-phenoxy)-piperidin-1-yl]-propan-1-one]: 1000 to 10000 nM; `O=C(C1CC1)N1CCC(Oc2ccc(-c3cnc4ccoc4c3)cc2)CC1` [Example 52, Cyclopropyl-[4-(4-furo[3,2-b]pyridin-6-yl-phenoxy)-piperidin-1-yl]-methanone]: 1000 to 10000 nM.
Next, `CCC(=O)N1CCC(Oc2ccc(-c3cnc4ccc(OC)cc4c3)cc2)CC1` [Example 53, 1-{4-[4-(6-Methoxyquinolin-3-yl)-phenoxy]-piperidin-1-yl}-propan-1-one]: 1000 to 10000 nM; `COc1ccc2ncc(-c3ccc(OC4CCN(C(=O)C5CC5)CC4)cc3)cc2c1` [Example 54, Cyclopropyl-{4-[4-(6-methoxyquinolin-3-yl)-phenoxy]-piperidin-1-yl}-methanone]: 100 to 999 nM.
For `CCC(=O)N1CCC(Oc2ccc(-c3cnc4cc(OC)c(OC)cc4c3)cc2)CC1` [Example 55, 1-{4-[4-(6,7-Dimethoxyquinolin-3-yl)-phenoxy]-piperidin-1-yl}-propan-1-one], the IC50 lay within 1000 to 10000 nM.
Consider `COc1cc2cc(-c3ccc(OC4CCN(C(=O)C5CC5)CC4)cc3)cnc2cc1OC` [Example 56, Cyclopropyl-{4-[4-(6,7-dimethoxyquinolin-3-yl)-phenoxy]-piperidin-1-yl}-methanone], for which the IC50 is 1000 to 10000 nM.
The result for `CCC(=O)N1CCC(Oc2ccc(-c3cnc4c(OC)cccc4c3)cc2)CC1` [Example 57, 1-{4-[4-(8-Methoxyquinolin-3-yl)-phenoxy]-piperidin-1-yl}-propan-1-one] reads 100 to 999 nM.
The result for `COc1cccc2cc(-c3ccc(OC4CCN(C(=O)C5CC5)CC4)cc3)cnc12` [Example 58, Cyclopropyl-{4-[4-(8-methoxyquinolin-3-yl)-phenoxy]-piperidin-1-yl}-methanone] reads 100 to 999 nM.
Turning to `O=C(C1CC1)N1CCC(Oc2ccc(-c3ccc4cccnc4c3Cl)cc2)CC1` [Example 59, {4-[4-(8-Chloroquinolin-7-yl)-phenoxy]-piperidin-1-yl}-cyclopropyl-methanone], the IC50 was in the range of 1 to 99 nM.
Consider `CCC(=O)N1CCC(Oc2ccc(-c3cnc4ccccc4c3C)cc2)CC1` [Example 60], for which the IC50 lay within 1 to 99 nM.
The result for `Cc1c(-c2ccc(OC3CCN(C(=O)C4CC4)CC3)cc2)cnc2ccccc12` [Example 61] reads 1 to 99 nM; that for `Cc1c(-c2ccc(OC3CCN(C(=O)C4CCC4)CC3)cc2)cnc2ccccc12` [Example 62, Cyclobutyl-{4-[4-(4-methylquinolin-3-yl)-phenoxy]-piperidin-1-yl}-methanone], 1 to 99 nM.
As for `CCC(=O)N1CCC(Oc2ccc(-c3cnc4cc(C)ccc4c3)cc2)CC1` [Example 63, 1-{4-[4-(7-Methylquinolin-3-yl)-phenoxy]-piperidin-1-yl}-propan-1-one], the IC50 lay in the range of 100 to 999 nM.
On to `Cc1ccc2cc(-c3ccc(OC4CCN(C(=O)C5CC5)CC4)cc3)cnc2c1` [Example 64, Cyclopropyl-{4-[4-(7-methylquinolin-3-yl)-phenoxy]-piperidin-1-yl}-methanone], for which the IC50 is 100 to 999 nM.
The result for `Cc1c(-c2ccc(OC3CCN(C(=O)[C@H]4CCCO4)CC3)cc2)cnc2ccccc12` [Example 65, {4-[4-(4-Methylquinolin-3-yl)-phenoxy]-piperidin-1-yl}-(R)-tetrahydro-furan-2-yl-methanone] reads 1 to 99 nM; that for `CCC(=O)N1CCC(Oc2ccc(-c3cnc4ccccc4n3)cc2)CC1` [Example 66, 1-[4-(4-Quinoxalin-2-yl-phenoxy)-piperidin-1-yl]-propan-1-one], 100 to 999 nM; that for `O=C(C1CC1)N1CCC(Oc2ccc(-c3cnc4ccccc4n3)cc2)CC1` [Example 67, Cyclopropyl-[4-(4-quinoxalin-2-yl-phenoxy)-piperidin-1-yl]-methanone], 100 to 999 nM.
Next, `O=C([C@H]1CCCO1)N1CCC(Oc2ccc(-c3cnc4ccccc4n3)cc2)CC1` [Example 68, [4-(4-Quinoxalin-2-yl-phenoxy)-piperidin-1-yl]-(R)-tetrahydrofuran-2-yl-methanone]: 1 to 99 nM; `Cc1c(-c2ccc(OC3CCN(C(=O)[C@H]4CCCO4)CC3)cc2)ccc2cccnc12` [Example 69, {4-[4-(8-Methylquinolin-7-yl)-phenoxy]-piperidin-1-yl}-(R)-tetrahydro-furan-2-yl-methanone]: 1 to 99 nM.
The result for `Cc1c(-c2ccc(OC3CCN(C(=O)[C@@H]4CCCO4)CC3)cc2)ccc2cccnc12` [Example 70, {4-[4-(8-Methylquinolin-7-yl)-phenoxy]-piperidin-1-yl}-(S)-tetrahydro-furan-2-yl-methanone] reads 1 to 99 nM; that for `O=C([C@H]1CCCO1)N1CCC(Oc2ccc(-c3cnc4ccccc4c3Cl)cc2)CC1` [Example 71, {4-[4-(4-Chloroquinolin-3-yl)-phenoxy]-piperidin-1-yl}-(R)-tetrahydro-furan-2-yl-methanone], 1 to 99 nM; that for `CC(=O)C(=O)N1CCC(Oc2ccc(-c3cnc4ccccc4c3C)cc2)CC1` [Example 72, 1-{4-[4-(4-Methylquinolin-3-yl)-phenoxy]-piperidin-1-yl}-propane-1,2-dione], 1 to 99 nM.
In the case of `O=C(N1CCC(Oc2ccc(-c3cnc4ccccc4c3)cc2)CC1)N1CCCO1` [Example 73, Isoxazolidin-2-yl-[4-(4-quinolin-3-yl-phenoxy)-piperidin-1-yl]-methanone], the IC50 fell in the range of 1 to 99 nM.
The result for `O=C(N1CCC(Oc2ccc(-c3cc4ccccc4cn3)cc2)CC1)N1CCCO1` [Example 74, [4-(4-Isoquinolin-3-yl-phenoxy)-piperidin-1-yl]-isoxazolidin-2-yl-methanone] reads 1 to 99 nM; that for `Cc1c(-c2ccc(OC3CCN(C(=O)N4CCCO4)CC3)cc2)ccc2cccnc12` [Example 75, Isoxazolidin-2-yl-{4-[4-(8-methyl-quinolin-7-yl)-phenoxy]-piperidin-1-yl}-methanone], 1 to 99 nM.
As to `O=C(N1CCC(Oc2ccc(-c3cnc4ccccc4c3Cl)cc2)CC1)N1CCCO1` [Example 76, {4-[4-(4-Chloroquinolin-3-yl)-phenoxy]-piperidin-1-yl}-isoxazolidin-2-yl-methanone], the IC50 lay within 1 to 99 nM.
Next, `O=C(N1CCC(Oc2ccc(-c3ccc4cccnc4c3Cl)cc2)CC1)N1CCCO1` [Example 77, {4-[4-(8-Chloroquinolin-7-yl)-phenoxy]-piperidin-1-yl}-isoxazolidin-2-yl-methanone]: 1 to 99 nM; `Cc1c(-c2ccc(OC3CCN(C(=O)N4CCCO4)CC3)cc2)cnc2ccccc12` [Example 78, Isoxazolidin-2-yl-{4-[4-(4-methylquinolin-3-yl)-phenoxy]-piperidin-1-yl}-methanone]: 1 to 99 nM; `COc1c(-c2ccc(OC3CCN(C(=O)N4CCCO4)CC3)cc2)ccc2cccnc12` [Example 79, Isoxazolidin-2-yl-{4-[4-(8-methoxyquinolin-7-yl)-phenoxy]-piperidin-1-yl}-methanone]: 1 to 99 nM.
The result for `Cc1ccc2cc(-c3ccc(OC4CCN(C(=O)N5CCCO5)CC4)cc3)cnc2c1` [Example 80, Isoxazolidin-2-yl-{4-[4-(7-methylquinolin-3-yl)-phenoxy]-piperidin-1-yl}-methanone] reads 1 to 99 nM; that for `O=C(N1CCC(Oc2ccc(-c3cnc4ccccc4n3)cc2)CC1)N1CCCO1` [Example 81, Isoxazolidin-2-yl-[4-(4-quinoxalin-2-yl-phenoxy)-piperidin-1-yl]-methanone], 1 to 99 nM.

(Values after patent publication US9902696B2, “1,4-substituted piperidine derivatives” (Cephalon, Inc., priority 2015, dated 2018).)
